According to ChEMBL document CHEMBL1275440, “In vitro activity of telavancin against resistant gram-positive bacteria” (2008):
In brackets after ≈: the same amount, converted by molar mass. Activity calls are given as the source filed them. The calls are words filed in the database; no cut-off is given here.

Experiments:
Type in all cases: functional
Streptococcus agalactiae [1] = experiment: Antibacterial activity against Streptococcus agalactiae MED 2038 assessed as bacterial count at 0.5 ug/ml after 4 hrs by time-kill assay
Streptococcus agalactiae [2] = experiment: Antibacterial activity against Streptococcus agalactiae MED 2038 assessed as bacterial count at 0.5 ug/ml after 24 hrs by time-kill assay
[3] = tested on: Staphylococcus saprophyticus; experiment: Antibacterial activity against methicillin resistant coagulase-negative Staphylococcus saprophyticus clinical isolate by broth microdilution method
Streptococcus agalactiae [4] = experiment: Antibacterial activity against Streptococcus agalactiae MED 2038 assessed as bacterial count at 2 ug/ml after 4 hrs by time-kill assay
Staphylococcus aureus [5] = experiment: Antibacterial activity against methicillin resistant Staphylococcus aureus MED 2028 osteomyelitis isolate assessed as bacterial count at 2 ug/ml after 8 hrs by time-kill assay
Enterococcus faecalis [6] = experiment: Antibacterial activity against Enterococcus faecalis ATCC 51575 assessed as bacterial count at 8 ug/ml after 8 hrs by time-kill assay
Staphylococcus aureus [7] = experiment: Antibacterial activity against methicillin resistant Staphylococcus aureus MED 2028 osteomyelitis isolate assessed as bacterial count at 8 ug/ml after 2 hrs by time-kill assay
[8] = tested on: Staphylococcus epidermidis; experiment: Antibacterial activity against methicillin resistant Staphylococcus epidermidis ATCC 35984 assessed as bacterial count at 8 ug/ml after 8 hrs by time-kill assay
Streptococcus agalactiae [9] = experiment: Antibacterial activity against Streptococcus agalactiae MED 2038 assessed as bacterial count at 2 ug/ml after 24 hrs by time-kill assay
Streptococcus pyogenes [10] = experiment: Antibacterial activity against Streptococcus pyogenes MED 2040 assessed as bacterial count at 8 ug/ml after 24 hrs by time-kill assay
Streptococcus agalactiae [11] = experiment: Antibacterial activity against Streptococcus agalactiae MED 2038 assessed as bacterial count at […] after 4 hrs by time-kill assay
Streptococcus pyogenes [12] = experiment: Antibacterial activity against Streptococcus pyogenes MED 2040 assessed as bacterial count at […] after 4 hrs by time-kill assay
Streptococcus pneumoniae [13] = experiment: Antibacterial activity against multidrug resistant Streptococcus pneumoniae MED 1090 assessed as bacterial count at 8 ug/ml after 24 hrs by time-kill assay
Streptococcus pyogenes [14] = experiment: Antibacterial activity against Streptococcus pyogenes MED 2040 assessed as bacterial count at 2 ug/ml after 4 hrs by time-kill assay
Staphylococcus aureus [15] = experiment: Antibacterial activity against methicillin resistant Staphylococcus aureus MED 1805 bloodstream isolate assessed as bacterial count at 1 ug/ml after 8 hrs by time-kill assay
Enterococcus faecalis [16] = experiment: Antibacterial activity against Enterococcus faecalis ATCC 51575 assessed as bacterial count at 2 ug/ml after 4 hrs by time-kill assay
Streptococcus pneumoniae [17] = experiment: Antibacterial activity against multidrug-resistant Streptococcus pneumoniae clinical isolate by broth microdilution method
Enterococcus faecalis [18] = experiment: Antibacterial activity against Enterococcus faecalis ATCC 51575 assessed as bacterial count at 4 ug/ml after 4 hrs by time-kill assay
[19] = tested on: Staphylococcus epidermidis; experiment: Antibacterial activity against methicillin resistant Staphylococcus epidermidis ATCC 35984 assessed as bacterial count at 2 ug/ml after 8 hrs by time-kill assay
Streptococcus agalactiae [20] = experiment: Antibacterial activity against Streptococcus agalactiae MED 2038 assessed as bacterial count at […] after 8 hrs by time-kill assay
Staphylococcus aureus [21] = experiment: Antibacterial activity against methicillin resistant Staphylococcus aureus MED 1805 bloodstream isolate assessed as bacterial count at 1 ug/ml after 4 hrs by time-kill assay
Streptococcus oralis = experiment: Antibacterial activity against Streptococcus oralis clinical isolate by broth microdilution method
[22] = tested on: Staphylococcus auricularis; experiment: Antibacterial activity against methicillin resistant coagulase-negative Staphylococcus auricularis clinical isolate by broth microdilution method
Streptococcus agalactiae [23] = experiment: Antibacterial activity against Streptococcus agalactiae MED 2038 assessed as bacterial count at […] after 24 hrs by time-kill assay
Staphylococcus aureus [24] = experiment: Antibacterial activity against methicillin resistant Staphylococcus aureus MED 1805 bloodstream isolate assessed as bacterial count at 4 ug/ml after 2 hrs by time-kill assay
Streptococcus pneumoniae [25] = experiment: Antibacterial activity against multidrug resistant Streptococcus pneumoniae MED 1090 assessed as bacterial count at 2 ug/ml after 8 hrs by time-kill assay
Streptococcus pneumoniae [26] = experiment: Antibacterial activity against multidrug resistant Streptococcus pneumoniae MED 1090 assessed as bacterial count at 8 ug/ml after 4 hrs by time-kill assay
Streptococcus pneumoniae [27] = experiment: Antibacterial activity against multidrug resistant Streptococcus pneumoniae MED 1090 assessed as bacterial count at 2 ug/ml after 2 hrs by time-kill assay
Streptococcus pyogenes [28] = experiment: Antibacterial activity against Streptococcus pyogenes MED 2040 assessed as bacterial count at […] after 8 hrs by time-kill assay
Streptococcus pneumoniae [29] = experiment: Antibacterial activity against multidrug resistant Streptococcus pneumoniae MED 1090 assessed as bacterial count at 8 ug/ml after 2 hrs by time-kill assay
Staphylococcus aureus [30] = experiment: Antibacterial activity against methicillin resistant Staphylococcus aureus MED 1805 bloodstream isolate assessed as bacterial count at 1 ug/ml after 24 hrs by time-kill assay
Streptococcus pyogenes [31] = experiment: Antibacterial activity against Streptococcus pyogenes MED 2040 assessed as bacterial count at 0.5 ug/ml after 8 hrs by time-kill assay
Enterococcus faecalis [32] = experiment: Antibacterial activity against vancomycin resistant Enterococcus faecalis VanA clinical isolate by broth microdilution method
[33] = tested on: Staphylococcus epidermidis; experiment: Antibacterial activity against methicillin resistant Staphylococcus epidermidis ATCC 35984 assessed as bacterial count at 2 ug/ml after 4 hrs by time-kill assay
Staphylococcus aureus [34] = experiment: Antibacterial activity against methicillin resistant Staphylococcus aureus MED 2028 osteomyelitis isolate assessed as bacterial count at 8 ug/ml after 4 hrs by time-kill assay
Streptococcus pneumoniae [35] = experiment: Antibacterial activity against multidrug resistant Streptococcus pneumoniae MED 1090 by broth microdilution method
Streptococcus pyogenes [36] = experiment: Antibacterial activity against Streptococcus pyogenes MED 2040 assessed as bacterial count at 0.5 ug/ml after 4 hrs by time-kill assay
Streptococcus pyogenes [37] = experiment: Antibacterial activity against Streptococcus pyogenes MED 2040 by broth microdilution method
Staphylococcus capitis = experiment: Antibacterial activity against methicillin resistant coagulase-negative Staphylococcus capitis clinical isolate by broth microdilution method
[38] = tested on: Staphylococcus epidermidis; experiment: Antibacterial activity against methicillin resistant Staphylococcus epidermidis clinical isolate by broth microdilution method
Streptococcus pyogenes [39] = experiment: Antibacterial activity against Streptococcus pyogenes MED 2040 assessed as bacterial count at 8 ug/ml after 4 hrs by time-kill assay
Enterococcus faecalis [40] = experiment: Antibacterial activity against Enterococcus faecalis ATCC 51575 assessed as bacterial count at 8 ug/ml after 24 hrs by time-kill assay
Staphylococcus aureus [41] = experiment: Antibacterial activity against methicillin resistant Staphylococcus aureus MED 1805 bloodstream isolate assessed as bacterial count at 16 ug/ml after 8 hrs by time-kill assay
Streptococcus pyogenes [42] = experiment: Antibacterial activity against Streptococcus pyogenes MED 2040 assessed as bacterial count at 8 ug/ml after 8 hrs by time-kill assay

## CCCCCCCCCCNCCN[C@@]1(C)C[C@H](O[C@H]2[C@H](Oc3c4cc5cc3Oc3ccc(cc3Cl)[C@@H](O)[C@@H](NC(=O)[C@@H](CC(C)C)NC)C(=O)N[C@@H](CC(N)=O)C(=O)N[C@H]5C(=O)N[C@H]3C(=O)N[C@H](C(=O)N[C@H](C(=O)O)c5cc(O)c(CNCP(=O)(O)O)c(O)c5-c5cc3ccc5O)[C@H](O)c3ccc(c(Cl)c3)O4)O[C@H](CO)[C@@H](O)[C@@H]2O)O[C@@H](C)[C@H]1O [TELAVANCIN]
Streptococcus agalactiae [1]
  log10CFU/ml: 1
Streptococcus agalactiae [2]
  log10CFU/ml: 3.6
[3]
  MIC50: 0.5 µg/mL (≈ 0.285 µM)
  MIC90: 1 µg/mL (≈ 0.57 µM)
Streptococcus agalactiae [4]
  log10CFU/ml: 0.8
Staphylococcus aureus [5]
  log10CFU/ml: 3.1
Enterococcus faecalis [6]
  log10CFU/ml: 0.5
Staphylococcus aureus [7]
  log10CFU/ml: 0.4
[8]
  log10CFU/ml: 3.3
Streptococcus agalactiae [9]
  log10CFU/ml: 2.7
Streptococcus pyogenes [10]
  log10CFU/ml: 2.7
Streptococcus agalactiae [11]
  log10CFU/ml: 0.9
Streptococcus pyogenes [12]
  log10CFU/ml: 1.8
Streptococcus pneumoniae [13]
  log10CFU/ml: 3.4
Streptococcus pyogenes [14]
  log10CFU/ml: 2.7
Staphylococcus aureus [15]
  log10CFU/ml: 3.2
Enterococcus faecalis [16]
  log10CFU/ml: 0.5
Streptococcus pneumoniae [17]
  MIC50: 0.015 µg/mL (≈ 0.00854 µM)
  MIC90: 0.03 µg/mL (≈ 0.0171 µM)
Enterococcus faecalis [18]
  log10CFU/ml: 0.5
[19]
  log10CFU/ml: 0.7
Streptococcus agalactiae [20]
  log10CFU/ml: 2.3
Staphylococcus aureus [21]
  log10CFU/ml: 1.8
Streptococcus oralis
  MIC: 0.015 µg/mL (≈ 0.00854 µM)
  MIC50: inactive
  MIC90: inactive
[22]
  MIC50: 0.5 µg/mL (≈ 0.285 µM)
  MIC90: 1 µg/mL (≈ 0.57 µM)
Streptococcus agalactiae [23]
  log10CFU/ml: 3.6
Staphylococcus aureus [24]
  log10CFU/ml: 1.2
Streptococcus pneumoniae [25]
  log10CFU/ml: 3.4
Streptococcus pneumoniae [26]
  log10CFU/ml: 1.7
Streptococcus pneumoniae [27]
  log10CFU/ml: 1.8
Streptococcus pyogenes [28]
  log10CFU/ml: 0.5
Streptococcus pneumoniae [29]
  log10CFU/ml: 1.2
Staphylococcus aureus [30]
  log10CFU/ml: 2.7
Streptococcus pyogenes [31]
  log10CFU/ml: 2.3
Enterococcus faecalis [32]
  MIC50: 8 µg/mL (≈ 4.56 µM)
  MIC90: 16 µg/mL (≈ 9.11 µM)
[33]
  log10CFU/ml: 0.03
Staphylococcus aureus [34]
  log10CFU/ml: 2.2
Streptococcus pneumoniae [35]
  MIC: 0.015 µg/mL (≈ 0.00854 µM)
Streptococcus pyogenes [36]
  log10CFU/ml: 1.6
Streptococcus pyogenes [37]
  MIC: 0.06 µg/mL (≈ 0.0342 µM)
Staphylococcus capitis
  MIC50: 0.5 µg/mL (≈ 0.285 µM)
  MIC90: 1 µg/mL (≈ 0.57 µM)
[38]
  MIC50: 0.5 µg/mL (≈ 0.285 µM)
  MIC90: 1 µg/mL (≈ 0.57 µM)
Streptococcus pyogenes [39]
  log10CFU/ml: 1.2
Enterococcus faecalis [40]
  log10CFU/ml: 1
Staphylococcus aureus [41]
  log10CFU/ml: 2.9
Streptococcus pyogenes [42]
  log10CFU/ml: 2.7
